A word on the melting point: it is the temperature of the solid-liquid transition.

The values that follow come from patent US20160031817A1, “3-PIPERIDONE COMPOUNDS AND THEIR USE AS NEUROKININ-1 (NK1) RECEPTOR ANTAGONISTS” (NANYANG TECHNOLOGICAL UNIVERSITY, priority 2013, published 2016).

`Oc1ccc(OC(F)(F)F)cc1C1COC2(CCCNC2c2ccccc2)C1` (racemic) [rac-3, rac-2-(6-phenyl-1-oxa-7-azaspiro[4.5]decan-3-yl)-4-(trifluoromethoxy)phenol]: the melting point is 203 to 204 °C (dec.).
